Measured values from US7635572B2, “Methods for conducting assays for enzyme activity on protein microarrays” (Life Technologies Corporation, priority 2004, dated 2009).
Where two headings read alike, the source gives them in different places.

Columns and labels:
Assay in all cases: Further analysis of a plurality of inhibitors and a plurality of kinases on microarray (Example IX, Table 5);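 further: inhibition of each kinase by the inhibitors is given as a qualitative level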;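 on Inhibition level, Homo sapiens in: level 0 none or unclear Level 1 marginal Level 2 substantial inhibition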;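 on Inhibition level, Homo sapiens, o: level 0 none or unclear Level 1 marginal Level 2 substantial inhibition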;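 on Inhibition level, LOC57118: level 0 none or unclear then 1 little or marginal then 2 substantial inhibition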;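 on Inhibition level, TLK2: level 0 none or unclear Level 1 marginal Level 2 substantial inhibition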
Format in all cases: biochemical
[1] = target: plurality of kinases (Table 5) (Homo sapiens, UniProt Q8IU85); settings: plate D2; inhibitor 100 uM
Sequence of plurality of kinases (Table 5) (Homo sapiens, UniProt Q8IU85) (Q8IU85 whole entry): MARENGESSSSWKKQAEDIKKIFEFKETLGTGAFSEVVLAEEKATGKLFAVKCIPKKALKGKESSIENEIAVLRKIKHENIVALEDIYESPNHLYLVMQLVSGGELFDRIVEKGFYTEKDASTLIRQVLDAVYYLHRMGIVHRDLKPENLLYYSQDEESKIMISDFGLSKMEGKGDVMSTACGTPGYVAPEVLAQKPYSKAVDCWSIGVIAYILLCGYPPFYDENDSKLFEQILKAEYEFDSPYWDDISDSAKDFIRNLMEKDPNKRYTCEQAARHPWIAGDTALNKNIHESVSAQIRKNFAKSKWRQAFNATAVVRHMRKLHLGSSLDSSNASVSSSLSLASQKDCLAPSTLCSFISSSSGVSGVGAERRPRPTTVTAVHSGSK

[2] = test system: plurality of kinases (Table 5); settings: for Inhibition level, Homo sapiens c: plate F4; for Inhibition level, Homo sapiens, o: plate F5; for Inhibition level, Homo sapiens, B: plate F7; for Inhibition level, Homo sapiens in: plate F9; for Inhibition level, Homo sapiens p: plate F10
[3] = target: T1, plurality of kinases (Table 5) (Homo sapiens, UniProt P51813); settings: plate B12; inhibitor 100 uM
T1 sequence (P51813 1-675): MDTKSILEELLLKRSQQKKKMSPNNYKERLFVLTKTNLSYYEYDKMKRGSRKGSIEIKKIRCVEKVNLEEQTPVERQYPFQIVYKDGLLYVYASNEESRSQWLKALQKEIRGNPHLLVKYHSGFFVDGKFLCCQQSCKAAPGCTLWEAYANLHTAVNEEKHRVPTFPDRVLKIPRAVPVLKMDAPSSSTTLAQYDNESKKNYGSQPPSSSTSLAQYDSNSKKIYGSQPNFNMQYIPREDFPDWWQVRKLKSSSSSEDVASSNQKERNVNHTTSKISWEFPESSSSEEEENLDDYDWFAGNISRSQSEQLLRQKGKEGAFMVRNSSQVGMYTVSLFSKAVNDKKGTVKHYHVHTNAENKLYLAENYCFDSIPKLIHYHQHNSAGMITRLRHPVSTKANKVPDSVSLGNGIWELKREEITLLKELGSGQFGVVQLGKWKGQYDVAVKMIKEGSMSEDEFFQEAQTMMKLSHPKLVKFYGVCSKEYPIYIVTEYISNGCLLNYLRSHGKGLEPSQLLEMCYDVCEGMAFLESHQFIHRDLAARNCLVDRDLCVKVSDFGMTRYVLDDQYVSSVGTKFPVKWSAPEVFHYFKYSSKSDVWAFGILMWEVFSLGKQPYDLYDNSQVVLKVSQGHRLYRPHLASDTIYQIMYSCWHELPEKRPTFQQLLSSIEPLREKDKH

[4] = target: T2, plurality of kinases (Table 5) (Homo sapiens, UniProt Q99759); settings: plate A1
T2 sequence (Q99759 1-626): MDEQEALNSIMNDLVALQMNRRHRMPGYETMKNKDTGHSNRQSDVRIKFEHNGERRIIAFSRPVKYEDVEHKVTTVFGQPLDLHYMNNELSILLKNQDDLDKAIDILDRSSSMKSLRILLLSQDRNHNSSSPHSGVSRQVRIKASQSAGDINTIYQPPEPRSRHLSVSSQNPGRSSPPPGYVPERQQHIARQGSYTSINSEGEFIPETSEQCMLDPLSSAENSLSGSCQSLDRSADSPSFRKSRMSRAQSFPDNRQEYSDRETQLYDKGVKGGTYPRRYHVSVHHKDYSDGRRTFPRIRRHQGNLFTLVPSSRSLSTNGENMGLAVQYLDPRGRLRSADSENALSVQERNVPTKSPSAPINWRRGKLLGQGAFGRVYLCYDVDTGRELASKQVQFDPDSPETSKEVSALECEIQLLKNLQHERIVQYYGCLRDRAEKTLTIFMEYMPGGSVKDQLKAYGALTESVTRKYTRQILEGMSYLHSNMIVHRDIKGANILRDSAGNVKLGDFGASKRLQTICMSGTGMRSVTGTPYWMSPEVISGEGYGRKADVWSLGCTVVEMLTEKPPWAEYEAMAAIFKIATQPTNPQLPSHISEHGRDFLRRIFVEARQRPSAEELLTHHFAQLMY

[5] = target: plurality of kinases (Table 5) (Homo sapiens, UniProt Q86UE8); settings: plate C8
Sequence of plurality of kinases (Table 5) (Homo sapiens, UniProt Q86UE8) (Q86UE8 whole entry): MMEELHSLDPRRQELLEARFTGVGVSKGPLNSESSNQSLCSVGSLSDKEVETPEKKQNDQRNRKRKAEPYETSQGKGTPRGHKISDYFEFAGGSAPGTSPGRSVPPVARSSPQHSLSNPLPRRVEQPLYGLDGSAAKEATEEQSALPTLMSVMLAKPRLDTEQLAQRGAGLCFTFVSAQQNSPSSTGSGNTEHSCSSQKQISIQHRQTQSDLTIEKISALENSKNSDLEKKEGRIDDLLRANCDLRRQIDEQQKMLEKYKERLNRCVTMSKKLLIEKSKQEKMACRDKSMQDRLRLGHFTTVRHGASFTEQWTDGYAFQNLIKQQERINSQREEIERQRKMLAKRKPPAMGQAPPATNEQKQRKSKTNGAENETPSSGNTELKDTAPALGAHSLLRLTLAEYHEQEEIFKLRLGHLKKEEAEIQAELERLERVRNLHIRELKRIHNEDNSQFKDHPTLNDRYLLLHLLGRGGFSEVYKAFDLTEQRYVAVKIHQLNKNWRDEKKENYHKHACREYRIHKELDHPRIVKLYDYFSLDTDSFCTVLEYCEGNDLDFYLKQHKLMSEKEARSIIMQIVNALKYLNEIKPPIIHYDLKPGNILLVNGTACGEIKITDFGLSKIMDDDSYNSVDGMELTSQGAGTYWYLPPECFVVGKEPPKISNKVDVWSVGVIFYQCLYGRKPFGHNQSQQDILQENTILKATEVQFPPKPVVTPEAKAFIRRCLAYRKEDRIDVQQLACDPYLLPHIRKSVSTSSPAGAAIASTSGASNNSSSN

[6] = target: T3, plurality of kinases (Table 5) (Homo sapiens, UniProt P54762)
T3 sequence (P54762 18-984): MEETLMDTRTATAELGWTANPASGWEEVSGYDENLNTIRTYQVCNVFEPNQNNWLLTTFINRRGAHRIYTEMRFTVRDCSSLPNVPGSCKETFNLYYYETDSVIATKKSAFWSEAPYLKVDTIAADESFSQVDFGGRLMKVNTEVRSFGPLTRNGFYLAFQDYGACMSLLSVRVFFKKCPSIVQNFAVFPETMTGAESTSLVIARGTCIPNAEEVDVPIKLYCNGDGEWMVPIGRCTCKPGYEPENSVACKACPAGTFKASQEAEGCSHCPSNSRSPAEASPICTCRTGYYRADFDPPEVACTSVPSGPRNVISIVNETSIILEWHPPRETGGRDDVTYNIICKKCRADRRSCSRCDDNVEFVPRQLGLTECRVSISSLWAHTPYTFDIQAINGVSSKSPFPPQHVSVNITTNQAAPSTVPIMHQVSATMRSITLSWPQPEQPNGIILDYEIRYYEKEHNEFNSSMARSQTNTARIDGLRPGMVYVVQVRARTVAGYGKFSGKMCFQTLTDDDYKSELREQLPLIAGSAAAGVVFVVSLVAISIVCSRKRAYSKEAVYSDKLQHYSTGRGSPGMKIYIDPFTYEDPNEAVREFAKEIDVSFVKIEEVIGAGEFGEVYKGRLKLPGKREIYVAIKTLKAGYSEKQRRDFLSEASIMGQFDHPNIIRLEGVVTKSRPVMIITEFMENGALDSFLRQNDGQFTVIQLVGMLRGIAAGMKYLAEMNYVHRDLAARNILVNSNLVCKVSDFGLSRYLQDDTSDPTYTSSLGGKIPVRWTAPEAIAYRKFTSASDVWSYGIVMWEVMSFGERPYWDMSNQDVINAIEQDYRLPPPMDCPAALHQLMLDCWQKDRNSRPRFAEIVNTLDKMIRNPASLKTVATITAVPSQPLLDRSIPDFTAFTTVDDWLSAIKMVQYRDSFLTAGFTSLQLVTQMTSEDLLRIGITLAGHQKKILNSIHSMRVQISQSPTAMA

SMILES | Inhibition level, LOC57118 [1] | Inhibition level, Homo sapiens, S ([2]; plate E9, inhibitor 100 uM) | Inhibition level, Homo sapiens, s ([2]; plate E11, inhibitor 100 uM) | Inhibition level, Homo sapiens, s ([2]; plate F3, inhibitor 100 uM) | Inhibition level, Homo sapiens c ([2]; inhibitor 100 uM) | Inhibition level, Homo sapiens, o ([2]; inhibitor 100 uM) | Inhibition level, Homo sapiens, S ([2]; plate F6, inhibitor 100 uM) | Inhibition level, Homo sapiens, B ([2]; inhibitor 100 uM) | Inhibition level, Homo sapiens, s ([2]; plate F8, inhibitor 100 uM) | Inhibition level, Homo sapiens in ([2]; inhibitor 100 uM) | Inhibition level, Homo sapiens p ([2]; inhibitor 100 uM) | Inhibition level, BMX [3] | Inhibition level, MAP3K3 ([4]; inhibitor 100 uM) | Inhibition level, TLK2 ([5]; inhibitor 100 uM) | Inhibition level, EPHB1 ([6]; plate B8, inhibitor 100 uM) | also measured
N#C/C(=C/c1ccc(O)c(O)c1)C(=O)NCc1ccccc1 [AG 490] | 1 | 0 | 2 | 0 | 2 | 2 | 0 | 2 | 0 | 1 | 2 | 0 | 2 | 2 | 0 | –
COc1cc2ncnc(Nc3cccc(Cl)c3)c2cc1OC [AG 1478] | 0 | 0 | 2 | 2 | 2 | 2 | 1 | 2 | 0 | 2 | 2 | 1 | 2 | 2 | 2 | –
O=c1c(-c2ccc(O)cc2)coc2cc(O)cc(O)c12 [Genistein] | 0 | 2 | 2 | 1 | 2 | 2 | 0 | 2 | 0 | 1 | 2 | 0 | 2 | 2 | 1 | Inhibition level, Homo sapiens, s ([2]; plate F3, Genistein, conc. not given): 0; Inhibition level, Homo sapiens, o ([2]; Genistein, conc. not given): 0; Inhibition level, Homo sapiens, S ([2]; plate F6, Genistein, conc. not given): 0; Inhibition level, Homo sapiens, B ([2]; Genistein, conc. not given): 0; Inhibition level, Homo sapiens, s ([2]; plate F8, Genistein, conc. not given): 0; Inhibition level, Homo sapiens in ([2]; Genistein, conc. not given): 0; Inhibition level, Homo sapiens p ([2]; Genistein, conc. not given): 2; Inhibition level, MAP3K3 ([4]; Genistein <3.7 mM): 2; Inhibition level, TLK2 ([5]; Genistein <3.7 mM): 0; Inhibition level, EPHB1 ([6]; plate B8, Genistein, conc. not given): 0
O=S(=O)(NCCNC/C=C/c1ccc(Br)cc1)c1cccc2cnccc12 [H-89] | 1 | 2 | 1 | 2 | 2 | 1 | 2 | 0 | 1 | 2 | 2 | 1 | 2 | 2 | 1 | –
CC(C)(C)n1nc(-c2ccc(Cl)cc2)c2c(N)ncnc21 [PP2] | 0 | 2 | 2 | 2 | 2 | 2 | 2 | 2 | 0 | 2 | 2 | 2 | 2 | 2 | 2 | –
O=c1c(O)c(-c2ccc(O)c(O)c2)oc2cc(O)cc(O)c12 [Quercetin] | 0 | – | – | – | – | – | – | – | – | – | – | 0 | 0 | 0 | 0 | –
CN[C@@H]1C[C@H]2O[C@@](C)([C@@H]1OC)n1c3ccccc3c3c4c(c5c6ccccc6n2c5c31)C(=O)NC4 [Staurosporine] | – | – | – | – | – | – | – | – | – | – | – | – | – | – | – | Inhibition level, MAP3K3 ([4]; Staurosporine 21.5 uM): 2; Inhibition level, TLK2 ([5]; Staurosporine 21.5 uM): 2; Inhibition level, EPHB1 [6]: 2
